Experimental data: the NIST ThermoML archive (doi:10.1021/je4004542)
Where “and” joins values, the source holds several entries; their conditions need not be identical. Identical values can stand only once.

Settings: for mass density: Liquid, isochoric method; for surface tension liquid-gas: Ring tensiometer

CC(F)(F)CC(F)(F)F [1,1,1,3,3-pentafluorobutane]
Settings | mass density [kg/m3]
237.49 K, 3052.4 kPa | 1382.79
238.27 K, 4040.1 kPa | 1382.71
239.08 K, 5074 kPa | 1382.22
239.08 K, 5081.7 kPa | 1382.63
243.12 K, 10185 kPa | 1382.22
247.08 K, 15188 kPa | 1381.81
247.43 K, 956.6 kPa | 1361.21
248.25 K, 1931.8 kPa | 1361.13
249.22 K, 3081.2 kPa | 1361.03
250.2 K, 4243.7 kPa | 1360.94
250.92 K, 19991 kPa | 1381.43
250.93 K, 5088.8 kPa | 1360.86
255 K, 25056 kPa | 1381.02
255.26 K, 10152 kPa | 1360.44
258.99 K, 29998 kPa | 1380.62
259.5 K, 15102 kPa | 1360.02
260.21 K, 1298.1 kPa | 1336.72
261.05 K, 2152.9 kPa | 1336.64
261.98 K, 3278.8 kPa | 1336.55
262.73 K, 4030.2 kPa | 1336.48
262.97 K, 34873 kPa | 1380.23
263.72 K, 19989 kPa | 1359.61
263.74 K, 5132.2 kPa | 1336.38
267.12 K, 39916 kPa | 1379.82
268.05 K, 24964 kPa | 1359.2
268.32 K, 10033 kPa | 1335.95
272.35 K, 29861 kPa | 1358.79
273.08 K, 15145 kPa | 1335.5
273.72 K, 1076.8 kPa | 1309.97
274.73 K, 2060 kPa | 1309.88
275.63 K, 2942.2 kPa | 1309.8
276.61 K, 3921.9 kPa | 1309.71
276.83 K, 34914 kPa | 1358.36
277.65 K, 4903.9 kPa | 1309.61
277.66 K, 19995 kPa | 1335.08
281.43 K, 40068 kPa | 1357.92
282.34 K, 24894 kPa | 1334.64
282.69 K, 10162 kPa | 1310.01
287.06 K, 29792 kPa | 1334.21
287.75 K, 1242 kPa | 1280.22
287.79 K, 15107 kPa | 1309.56
288.9 K, 2019.2 kPa | 1280.13
290.22 K, 3193 kPa | 1280.01
291.35 K, 4070.9 kPa | 1279.92
292.09 K, 35022 kPa | 1333.75
292.96 K, 5455.1 kPa | 1279.78
292.96 K, 20092 kPa | 1309.09
296.9 K, 39956 kPa | 1333.31
297.78 K, 24667 kPa | 1308.67
298.16 K, 10021 kPa | 1279.33
298.57 K, 1157.4 kPa | 1258.72
299.69 K, 2006.3 kPa | 1258.62
301.02 K, 3084.3 kPa | 1258.51
302.24 K, 4081.3 kPa | 1258.41
303.22 K, 29830 kPa | 1308.18
303.47 K, 5080.2 kPa | 1258.31
303.85 K, 15147 kPa | 1278.84
308.65 K, 34947 kPa | 1307.7
309.5 K, 20037 kPa | 1278.36
309.51 K, 9974.6 kPa | 1257.8
309.96 K, 1066.8 kPa | 1234.65
311.31 K, 2069.7 kPa | 1234.54
312.57 K, 3017.8 kPa | 1234.43
313.89 K, 4006.1 kPa | 1234.33
314.06 K, 40001 kPa | 1307.23
315.23 K, 5013.4 kPa | 1234.22
315.28 K, 25013 kPa | 1277.86
315.8 K, 15053 kPa | 1257.28
321.09 K, 29987 kPa | 1277.37
322.04 K, 20055 kPa | 1256.76
322.05 K, 10082 kPa | 1233.67
322.3 K, 1278.8 kPa | 1207.34
323.48 K, 1919.7 kPa | 1207.25
325.25 K, 3125.1 kPa | 1207.12
326.62 K, 4057.4 kPa | 1207.01
326.99 K, 34967 kPa | 1276.87
327.9 K, 4926.1 kPa | 1206.91
328.32 K, 25047 kPa | 1256.24
328.8 K, 15073 kPa | 1233.12
333.06 K, 40085 kPa | 1276.36
334.62 K, 30028 kPa | 1255.72
335.52 K, 1037.9 kPa | 1175.56
335.52 K, 10079 kPa | 1206.32
335.52 K, 20025 kPa | 1232.59
337.15 K, 2014.4 kPa | 1175.44
338.81 K, 3050.5 kPa | 1175.32
340.39 K, 4011 kPa | 1175.2
341.51 K, 35426 kPa | 1255.16
342.03 K, 5008.9 kPa | 1175.08
342.36 K, 25012 kPa | 1232.04
343.05 K, 15153 kPa | 1205.73
347.07 K, 39768 kPa | 1254.7
353.15 K, 11756 kPa | 1174.25
353.15 K, 21912 kPa | 1204.96
353.15 K, 32850 kPa | 1231.18

Settings | surface tension liquid-gas
261.8 K | 19.87 mN/m
261.94 K | 19.66 mN/m
268.05 K | 19.19 mN/m
268.09 K | 19.01 mN/m
273.05 K | 18.56 mN/m and 18.41 mN/m
277.76 K | 18.08 mN/m and 17.98 mN/m
282.88 K | 17.57 mN/m
282.98 K | 17.42 mN/m
288.32 K | 17.05 mN/m
288.35 K | 16.88 mN/m
293.51 K | 16.3 mN/m
293.54 K | 16.29 mN/m
297.79 K | 15.81 mN/m
297.86 K | 15.92 mN/m
302.48 K | 15.41 mN/m
302.55 K | 15.38 mN/m
308.11 K | 14.66 mN/m
308.31 K | 14.65 mN/m

COC(F)(F)C(F)(F)C(F)(F)F [heptafluoropropyl methyl ether]
Settings | mass density [kg/m3]
209.16 K, 1147.7 kPa | 1630.6
215.36 K, 9581.3 kPa | 1629.81
219.53 K, 15297 kPa | 1629.29
220.04 K, 1236.5 kPa | 1604.5
223 K, 19918 kPa | 1628.87
223.03 K, 4963.4 kPa | 1604.13
227.03 K, 9963.9 kPa | 1603.65
231.15 K, 15085 kPa | 1603.16
231.6 K, 910.5 kPa | 1576.15
232.59 K, 2030.9 kPa | 1576.04
233.44 K, 3013 kPa | 1575.94
234.26 K, 3948.9 kPa | 1575.84
235.13 K, 20005 kPa | 1602.69
235.25 K, 5067.3 kPa | 1575.72
239.34 K, 25172 kPa | 1602.2
239.68 K, 10109 kPa | 1575.21
243.19 K, 29834 kPa | 1601.75
244.03 K, 15038 kPa | 1574.72
244.63 K, 1009.9 kPa | 1544.86
245.59 K, 1998.3 kPa | 1544.75
246.51 K, 2962.6 kPa | 1544.65
247.39 K, 3900.7 kPa | 1544.55
247.5 K, 35024 kPa | 1601.26
248.47 K, 20022 kPa | 1574.22
248.53 K, 5046.1 kPa | 1544.43
251.72 K, 40059 kPa | 1600.78
252.99 K, 25061 kPa | 1573.71
253.35 K, 10014 kPa | 1543.89
257.43 K, 29986 kPa | 1573.22
258.16 K, 14929 kPa | 1543.37
258.74 K, 1019.7 kPa | 1509.93
259.75 K, 1914.3 kPa | 1509.82
260.88 K, 2987.6 kPa | 1509.7
261.92 K, 3946.9 kPa | 1509.59
262 K, 34997 kPa | 1572.72
263.02 K, 19886 kPa | 1542.85
263.07 K, 5031.9 kPa | 1509.47
266.61 K, 40003 kPa | 1572.21
267.97 K, 24863 kPa | 1542.32
268.54 K, 10046 kPa | 1508.89
273.04 K, 29941 kPa | 1541.78
273.95 K, 14959 kPa | 1508.34
274.52 K, 994.4 kPa | 1470.55
275.72 K, 1967.2 kPa | 1470.43
276.99 K, 3007.5 kPa | 1470.3
278.09 K, 34925 kPa | 1541.25
278.24 K, 4016.2 kPa | 1470.18
279.44 K, 4996 kPa | 1470.06
279.44 K, 19959 kPa | 1507.77
283.23 K, 39964 kPa | 1540.71
284.96 K, 24913 kPa | 1507.21
285.69 K, 10030 kPa | 1469.44
285.95 K, 1083.6 kPa | 1440.86
287.33 K, 2026 kPa | 1440.73
288.68 K, 3021.9 kPa | 1440.6
289.89 K, 3919.7 kPa | 1440.48
290.57 K, 29908 kPa | 1506.65
291 K, 4729.9 kPa | 1440.38
291.9 K, 15010 kPa | 1468.83
296.23 K, 34913 kPa | 1506.08
298.15 K, 9994.4 kPa | 1439.7
298.15 K, 19997 kPa | 1468.22
298.45 K, 987.1 kPa | 1407.52
300.45 K, 2316.3 kPa | 1407.33
301.51 K, 3015.6 kPa | 1407.24
302.03 K, 40008 kPa | 1505.49
303.04 K, 4032 kPa | 1407.09
304.36 K, 4907.1 kPa | 1406.97
304.43 K, 24980 kPa | 1467.62
305.45 K, 15319 kPa | 1439.01
310.78 K, 29953 kPa | 1467.01
312.11 K, 10022 kPa | 1406.27
312.12 K, 1009.6 kPa | 1369.41
312.57 K, 20469 kPa | 1438.34
313.79 K, 1997.3 kPa | 1369.27
315.49 K, 2985.1 kPa | 1369.12
317.16 K, 3966.3 kPa | 1368.97
317.19 K, 34932 kPa | 1466.39
318.7 K, 4864.6 kPa | 1368.84
319.58 K, 25523 kPa | 1437.69
319.65 K, 14861 kPa | 1405.59
323.78 K, 40025 kPa | 1465.77
326.44 K, 30424 kPa | 1437.05
327.49 K, 1098.2 kPa | 1324.67
327.49 K, 10016 kPa | 1368.08
327.51 K, 19990 kPa | 1404.89
329.49 K, 2043 kPa | 1324.5
331.48 K, 3053.3 kPa | 1324.34
333.43 K, 4045.4 kPa | 1324.18
333.47 K, 35408 kPa | 1436.41
335.24 K, 25016 kPa | 1404.19
335.37 K, 5030.2 kPa | 1324.02
335.65 K, 14779 kPa | 1367.37
340.74 K, 40506 kPa | 1435.74
342.96 K, 29980 kPa | 1403.51
344.67 K, 20018 kPa | 1366.6
345.22 K, 10048 kPa | 1323.21
353.15 K, 14072 kPa | 1322.56
353.15 K, 24901 kPa | 1365.87
353.15 K, 36576 kPa | 1402.6

Settings | surface tension liquid-gas [mN/m]
261.81 K | 15.99
261.89 K | 15.89
267.86 K | 15.39
267.87 K | 15.34
272.93 K | 14.86
272.95 K | 14.85
277.8 K | 14.35
277.82 K | 14.4
282.63 K | 13.7
282.77 K | 13.93
287.73 K | 13.15
287.83 K | 13.47
292.56 K | 13.04
297.67 K | 12.54
